Assay results taken from patent US20240270821A1, “GIP/GLP1/GCG TRI-RECEPTOR AGONISTS AND USES THEREOF” (priority 2023, published 2024).
Where two headings read alike, the source gives them in different places. Starred links: 1 amine or outer side, 2 acyl side, 3 side chain; linkers in the order of their positions; H or OH if unused. Non-standard residues stand in square brackets, D forms with d. Groups on a side chain read outwards from the residue. No end group written: not given here. *: point of attachment. C20 diacid = O=C(O)CCCCCCCCCCCCCCCCCCC(=O)*; C18 diacid = O=C(O)CCCCCCCCCCCCCCCCC(=O)*; Phe(4-CN) = N#Cc1ccc(C[C@H](N)C(=O)O)cc1; αMePhe(2-F) = C[C@](N)(Cc1ccccc1F)C(=O)O; γGlu = O=C(O)[C@H](CCC(=O)[*:2])N[*:1]; αMe4Pal = C[C@](N)(Cc1ccncc1)C(=O)O; αMeY = C[C@](N)(Cc1ccc(O)cc1)C(=O)O; 4Pal = N[C@@H](Cc1ccncc1)C(=O)O; αMeL = CC(C)C[C@](C)(N)C(=O)O; αMeS = C[C@](N)(CO)C(=O)O; Orn = NCCC[C@H](N)C(=O)O; AEEA = NCCOCCOCC(=O)O; Aib = CC(C)(N)C(=O)O

Columns and labels:
Assay type in all cases: cell-based
[1] = target: T1, hGIPR (Homo sapiens, UniProt P48546); test: Functional cAMP activity in the presence of 1% HSA; conditions: read-out: cAMP Rel EC50, hGIPR
T1 sequence (P48546 22-466): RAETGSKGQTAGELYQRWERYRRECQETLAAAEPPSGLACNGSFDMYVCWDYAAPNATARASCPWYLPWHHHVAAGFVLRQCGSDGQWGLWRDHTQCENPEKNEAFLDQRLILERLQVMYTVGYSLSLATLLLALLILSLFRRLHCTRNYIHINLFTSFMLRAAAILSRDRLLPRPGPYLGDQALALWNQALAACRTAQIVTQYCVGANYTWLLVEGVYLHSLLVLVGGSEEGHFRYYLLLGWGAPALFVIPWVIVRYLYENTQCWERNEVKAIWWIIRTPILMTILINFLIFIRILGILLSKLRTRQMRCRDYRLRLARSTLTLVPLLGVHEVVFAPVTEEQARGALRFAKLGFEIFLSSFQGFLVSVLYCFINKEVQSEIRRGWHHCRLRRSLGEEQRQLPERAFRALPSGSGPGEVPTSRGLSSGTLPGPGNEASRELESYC

[2] = target: T2, hGLP-1R (Homo sapiens, UniProt P43220); test: Functional cAMP activity in the presence of 1% HSA; conditions: read-out: cAMP Rel EC50, hGLP-1R
[3] = target: human GcgR (Homo sapiens, UniProt P47871); test: Functional cAMP activity in the presence of 1% HSA; conditions: read-out: cAMP Rel EC50, hGcgR
[4] = target: T1, hGIPR; test: Functional cAMP activation in the presence of 0.1% casein (no HSA); conditions: read-out: Relative cAMP EC50, hGIPR;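 on Relative cAMP EC50, hGIPR: intracellular cAMP rise after 30 min at 37 °C read by HTRF against a standard curve, scaled between buffer alone (0%) and top control ligand concentration (100%), four-parameter fit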;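 on Relative cAMP EC50, hGLP-1R: intracellular cAMP rise after 30 min at 37 °C read by HTRF, normalized between buffer only (0%) and maximal control ligand (100%), four-parameter variable-slope fit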;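 on Relative cAMP EC50, hGcgR: intracellular cAMP rise after 30 min at 37 °C, read by HTRF against a cAMP standard curve, scaled from buffer only (0%) to maximal control ligand response (100%)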
[5] = target: T2, hGLP-1R; test: as above; conditions: read-out: Relative cAMP EC50, hGLP-1R
[6] = target: hGcgR (Homo sapiens, UniProt P47871); test: as above; conditions: read-out: Relative cAMP EC50, hGcgR;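 further: intracellular cAMP rise after 30 min at 37 °C, read by HTRF against a cAMP standard curve, scaled from buffer only (0%) to maximal control ligand response (100%)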
[7] = in the presence of 0.1% casein (no HSA), geometric mean
[8] = HEK-293 clonal cell line, 1% HSA, geometric mean of relative EC50
[9] = in the presence of 0.1% casein (no HSA), geometric mean of relative EC50

Chain of hGcgR (P47871 26-477): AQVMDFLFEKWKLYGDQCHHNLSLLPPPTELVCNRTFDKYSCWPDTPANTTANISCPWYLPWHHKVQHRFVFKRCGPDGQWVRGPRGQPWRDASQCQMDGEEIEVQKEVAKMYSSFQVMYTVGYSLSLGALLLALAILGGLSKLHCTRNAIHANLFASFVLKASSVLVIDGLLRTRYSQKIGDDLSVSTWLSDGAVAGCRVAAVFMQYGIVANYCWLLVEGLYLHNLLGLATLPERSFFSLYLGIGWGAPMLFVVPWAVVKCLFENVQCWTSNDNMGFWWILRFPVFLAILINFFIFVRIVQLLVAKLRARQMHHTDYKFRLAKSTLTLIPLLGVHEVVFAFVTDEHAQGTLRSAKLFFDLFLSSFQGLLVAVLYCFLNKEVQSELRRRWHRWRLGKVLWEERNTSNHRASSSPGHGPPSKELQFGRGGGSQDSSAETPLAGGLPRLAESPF
Chain of human GcgR (P47871 26-477): as above
T2 sequence (P43220 24-463): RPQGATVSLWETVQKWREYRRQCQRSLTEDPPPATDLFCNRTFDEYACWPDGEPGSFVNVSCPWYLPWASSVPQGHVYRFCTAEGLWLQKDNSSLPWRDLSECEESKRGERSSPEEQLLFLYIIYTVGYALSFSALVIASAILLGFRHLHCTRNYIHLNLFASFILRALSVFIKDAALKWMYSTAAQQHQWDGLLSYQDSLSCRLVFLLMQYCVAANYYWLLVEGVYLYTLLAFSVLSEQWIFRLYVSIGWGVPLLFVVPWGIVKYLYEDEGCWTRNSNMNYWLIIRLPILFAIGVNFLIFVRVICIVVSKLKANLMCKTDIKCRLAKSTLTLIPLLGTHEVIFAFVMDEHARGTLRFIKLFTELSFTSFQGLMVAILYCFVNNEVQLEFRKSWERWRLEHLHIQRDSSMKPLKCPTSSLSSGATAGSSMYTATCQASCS

Row | Substance | EC50 [1] [nM] | EC50 [2] [nM] | EC50 [3] [nM] | EC50 [4] [nM] | EC50 [5] [nM] | EC50 [6] [nM] | EC50 [4, 7] [nM] | EC50 [5, 7] [nM] | EC50 [6, 7] [nM] | EC50 [1, 8] [nM] | EC50 [2, 8] [nM] | EC50 [3, 8] [nM] | EC50 [4, 9] [nM] | EC50 [5, 9] [nM] | EC50 [6, 9] [nM]
1 | H-Y[Aib]QGT[αMePhe(2-F)]TSD[4Pal][αMeS]I[αMeL]LD[Orn]K([γGlu-γGlu-C18 diacid])AQ[Aib][Orn]FI[dE][αMeY]LTEGGPSSGEPPPEGTEEE-NH2 [Example 598] | 3.49 | 47.3 | 457 | 0.0927 | 0.886 | 8.79 | – | – | – | – | – | – | – | – | –
2 | H-Y[Aib]QGT[αMePhe(2-F)]TSD[4Pal][αMeS]I[αMeL]LD[Orn]K([AEEA-γGlu-C18 diacid])AQ[αMe4Pal]EFI[dE][αMeY]LVEGGPSSGAPPPTGE-NH2 [Example 1152] | 1.21 | 43.8 | 287 | – | – | – | 0.0101 | 0.371 | 2.32 | – | – | – | – | – | –
3 | H-Y[Aib]QGTFTSD[4Pal]SQ[αMeL]LD[Orn]K([AEEA-γGlu-C18 diacid])AQ[αMe4Pal]AFI[dE][αMeY]LIEGGPSSGAPPPSGSEE-NH2 [Example 1042] | 84.8 | 642 | 1890 | – | – | – | 1.3 | 10.3 | 27.5 | – | – | – | – | – | –
4 | H-Y[Aib]QGT[αMePhe(2-F)]TSD[4Pal]SI[αMeL]LDKK([γGlu-γGlu-C18 diacid])AQ[Aib]AFIEYLQEGGPSSGEPPPSGSEE-NH2 [Example 634] | – | – | – | – | – | – | – | – | – | 1.48 | 34.9 | 979 | 0.0195 | 0.403 | 6.49
5 | Y[Aib]QGT[αMePhe(2-F)]TSD[4Pal][αMeS]I[αMeL]LD[Orn]K([AEEA-γGlu-C18 diacid])AQ[αMe4Pal]EFI[dE][αMeY]LIEGGPSSGEPPPSGE-NH2 [Example 1141] | 0.816 | 47.5 | 169 | – | – | – | 0.00921 | 0.412 | 1.15 | – | – | – | – | – | –
6 | H-Y[Aib]QGT[αMePhe(2-F)]TSD[Phe(4-CN)]SKLLDKIAQK([AEEA-γGlu-C20 diacid])AFIEYLIEGGPSSGEPPPSGS-NH2 [Example 364] | 101 | 260 | 3190 | – | – | – | 0.457 | 1.1 | 10.2 | – | – | – | – | – | –
7 | Y[Aib]QGTFTSD[4Pal]SQ[αMeL]LDKK([AEEA-γGlu-C18 diacid])AQ[Aib]AFIEYLLE[dA]GPSSGAPPPSG[4Pal]-NH2 [Example 822] | 18.1 | 322 | 2100 | – | – | – | 0.186 | 2.51 | 11.6 | – | – | – | – | – | –
8 | H-Y[Aib]QGTFTSD[4Pal]S[Orn][αMeL]LD[Orn]K([γGlu-γGlu-C18 diacid])AQ[αMe4Pal]AFIE[αMeY]LIEGGPSSGAPPPSGS-NH2 [Example 1013] | 22.6 | 137 | 285 | – | – | – | 0.208 | 0.449 | 2 | – | – | – | – | – | –
9 | Y[Aib]QGTFTSDFSK[αMeL]LDKK([AEEA-γGlu-C18 diacid])AQ[Aib]AFIEYLIE[Aib]GPSSGAPPPSGS-NH2 [Example 797] | 16.7 | 102 | 963 | – | – | – | 0.0781 | 0.449 | 3.78 | – | – | – | – | – | –
